One block for each compound: values may come before it.
Key:
[1] = DPPH free radical scavenging assay; format: biochemical; settings: 100 μM DPPH; for EC50: 30 min, room temperature
Description: The free radical scavenging activities of tested compounds and herbal extracts were determined using the stable 1,1-diphenyl-2-picrylhydrazyl (DPPH, Sigma) free radical assay (see Li, N.; Liu, J. H.; Zhang, J.; Yu, B. Y. Comparative evaluation of cytotoxicity and antioxidative activity of 20 flavonoids. Journal of Agricultural and Food Chemistry 56:3876-3883; 2008) with some modifications. Briefly, radical scavenging activity was measured in an ethanol mixture containing 100 μM DPPH radical solution and tested compounds (10˜200 μM) or herbal extracts (0.2˜4 mg/mL) The mixture was vortexed for 15 sec and then left to stand at room temperature for 30 min. Then, the scavenging capacity was measured by monitoring the decrease in absorbance at 517 nm by a Thermo Scientific Multiskan GO Microplate Spectrophotometer. The radical scavenging activity was calculated using the formula: 1−(absorbance of sample/absorbance of control)×100%. The antioxidative activity expressed as EC50 was defined as the concentration of the compounds required for inhibition of the formation of DPPH radicals by 50%.

HEK-293 cells = assay: IC50 cytotoxicity (MTT cell proliferation) / effective dose ratio
Description: H.; Kung, P. J.; Lin, T. H.; Wu, Y. C.; Wu, Y. R.; Chen, Y. C.; Lee-Chen, G. J.; Chen, C. […] Cell proliferation was measured based upon the reduction of 3-(4,5-dimethylthiazol-2-yl]-2,5-diphenyltetrazolium bromide (MTT). Briefly, 5×10^4 cells were plated into 48-well dishes, grown for 20 hr and treated with herbal extract (5˜30 mg/mL G. inflata or C. longa) or pure compound (100 nM˜1 mM AMGZ or licochalcone A). After one day, 20 μL MTT (5 mg/mL in PBS, Sigma) was added to cells and incubated for 2 hr. The absorbance of the insoluble purple formazan product was measured at 570 nm by a Bio-Tek μQuant Universal Microplate Spectrophotometer.
Then doxycycline (10 μg/mL, BD) and oxaliplatin (5 μM, Sigma) were added for 6 days.

[2] = test system: SH-SY5Y ATXN3/Q75-GFP cells; assay: ATXN3/Q75 aggregation assay in retinoic acid differentiated neuronal cells; format: cell-based, human; settings: one week
Description: SH-SY5Y ATXN3/Q75-GFP cells were seeded in 6-well (2×10^5/well) plate, with all trans retinoic acid (10 μM, Sigma) added at seeding time. At day 2, cells were treated with G. inflata or C. longa extract (10 μg/mL), AMGZ (0.2 μM) or licochalcone A (2 nM) for 8 hr, and then doxycycline (5 μg/mL) was added to induce ATXN3/Q75-GFP expression. After one week, cells were stained with Hoechst 33342 and aggregation percentage was assessed as described. The morphologic differentiation of untreated cells including total outgrowth, processes, and branches was assessed by using HCA system.

293 ATXN3/Q75-GFP cells = assay: ATXN3/Q75 aggregation assay, high-content analysis; format: cell-based, human
Description: Glycyrrhizin is metabolized to 18β-glycyrrhetinic acid by intestinal bacteria. Therefore, ATXN3/Q75 aggregation assay was further performed with different concentrations of the 18β-glycyrrhetinic acid (0.1˜10 μM) and SAHA (0.1 μM) by the aforementioned method, aggregation percentage was assessed by HCA system.

EC50 [1]: 27 µM
SMILES: O=c1c(O)c(-c2ccc(O)cc2)oc2cc(O)cc(O)c12 [Kaempferol, reference compound]

EC50 [1]: 121 µM
SMILES: C=CC(C)(C)c1cc(/C=C/C(=O)c2ccc(O)cc2)c(OC)cc1O [licochalcone A]
IC50 cytotoxicity/effective dose ratio (HEK-293 cells; human, 1 day): 3×10^5
aggregation reduction in ATXN3/Q75 expressed neuronal cells ([2]; 2 nM): 10%

SMILES: O=C(CCCCCCC(=O)Nc1ccccc1)NO [SAHA, suberoylanilide hydroxamic acid, reference compound]
ATXN3/Q75 aggregation as compared to untreated cells (293 ATXN3/Q75-GFP cells; 100 nM, 8 hr pretreatment, then doxycycline and oxaliplatin 6 days): 85%

SMILES: CC1(C)[C@@H](O)CC[C@]2(C)[C@H]3C(=O)C=C4[C@@H]5C[C@@](C)(C(=O)O)CC[C@]5(C)CC[C@@]4(C)[C@]3(C)CC[C@@H]12 [18β-glycyrrhetinic acid]
ATXN3/Q75 aggregation as compared to untreated cells (293 ATXN3/Q75-GFP cells; 10 μM): 81%

SMILES: CC1(C)[C@@H](O[C@H]2O[C@H](C(=O)O)[C@@H](O)[C@H](O)[C@H]2O[C@@H]2O[C@H](C(=O)O)[C@@H](O)[C@H](O)[C@H]2O)CC[C@]2(C)[C@H]3C(=O)C=C4[C@@H]5C[C@@](C)(C(=O)O)CC[C@]5(C)CC[C@@]4(C)[C@]3(C)CC[C@@H]12 [AMGZ, ammonium glycyrrhizinate]
IC50 cytotoxicity/effective dose ratio (HEK-293 cells; effective = reduced the ATXN3/Q75 aggregation to 85% or lower): > 10000
DPPH scavenging activity ([1]; tested compounds 10˜200 μM): no detectable DPPH scavenging activity
aggregation reduction in ATXN3/Q75 expressed neuronal cells ([2]; 0.2 μM): 9%
